Data: ChEMBL document CHEMBL5653615 (J Biol Chem, 2013)

Experiments:
[1] = target: Death-associated protein kinase 2 (Homo sapiens) (UniProt Q9UIK4); assay: Inhibition of human DAPK2 at 18.6 nM by HotSpot assay relative to control
[2] = target: Mitogen-activated protein kinase 8 (Homo sapiens) (UniProt P45983); assay: Inhibition of human JNK1 at 18.6 nM by HotSpot assay relative to control
[3] = target: Serine/threonine-protein kinase 33 (Homo sapiens) (UniProt Q9BYT3); assay: Inhibition of human STK33 at 18.6 nM by HotSpot assay relative to control
Chain of Serine/threonine-protein kinase 33 (Homo sapiens) (Q9BYT3 whole entry, looked up): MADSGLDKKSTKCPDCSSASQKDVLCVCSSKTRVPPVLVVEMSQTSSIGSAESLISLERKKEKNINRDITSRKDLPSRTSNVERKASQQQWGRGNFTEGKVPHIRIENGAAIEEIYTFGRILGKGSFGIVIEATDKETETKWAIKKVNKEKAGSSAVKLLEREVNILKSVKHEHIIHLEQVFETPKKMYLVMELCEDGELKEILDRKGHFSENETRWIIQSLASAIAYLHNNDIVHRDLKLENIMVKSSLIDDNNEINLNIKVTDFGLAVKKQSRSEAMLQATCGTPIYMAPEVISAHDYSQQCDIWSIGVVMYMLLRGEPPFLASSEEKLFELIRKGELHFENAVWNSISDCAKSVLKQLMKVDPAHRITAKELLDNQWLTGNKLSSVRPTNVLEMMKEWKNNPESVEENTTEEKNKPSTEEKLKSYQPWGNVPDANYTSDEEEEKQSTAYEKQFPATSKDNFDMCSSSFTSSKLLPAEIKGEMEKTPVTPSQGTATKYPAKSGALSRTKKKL

[4] = target: Serine/threonine-protein kinase PAK 4 (Homo sapiens) (UniProt O96013); assay: Inhibition of human PAK4 at 18.6 nM by HotSpot assay relative to control
Chain of Serine/threonine-protein kinase PAK 4 (Homo sapiens) (O96013 whole entry, looked up): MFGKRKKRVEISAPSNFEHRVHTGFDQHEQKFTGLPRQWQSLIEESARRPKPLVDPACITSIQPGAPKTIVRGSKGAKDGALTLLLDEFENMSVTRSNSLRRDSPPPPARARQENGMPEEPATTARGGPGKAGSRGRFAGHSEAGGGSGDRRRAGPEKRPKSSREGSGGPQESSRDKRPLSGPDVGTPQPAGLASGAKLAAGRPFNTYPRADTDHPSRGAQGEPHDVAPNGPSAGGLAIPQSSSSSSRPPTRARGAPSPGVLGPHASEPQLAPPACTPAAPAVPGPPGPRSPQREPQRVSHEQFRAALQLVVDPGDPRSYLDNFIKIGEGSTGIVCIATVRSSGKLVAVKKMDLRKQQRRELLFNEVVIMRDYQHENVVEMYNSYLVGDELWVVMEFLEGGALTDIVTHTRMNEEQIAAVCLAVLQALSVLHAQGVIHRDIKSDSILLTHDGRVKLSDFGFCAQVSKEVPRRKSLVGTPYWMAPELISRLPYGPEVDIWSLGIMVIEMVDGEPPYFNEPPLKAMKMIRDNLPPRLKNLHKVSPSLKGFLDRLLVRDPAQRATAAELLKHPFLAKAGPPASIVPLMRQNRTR

[5] = target: T1, Serine/threonine-protein kinase Nek1 (Homo sapiens) (UniProt Q96PY6); assay: Inhibition of human NEK1 at 18.6 nM by HotSpot assay relative to control
T1 sequence (whole entry): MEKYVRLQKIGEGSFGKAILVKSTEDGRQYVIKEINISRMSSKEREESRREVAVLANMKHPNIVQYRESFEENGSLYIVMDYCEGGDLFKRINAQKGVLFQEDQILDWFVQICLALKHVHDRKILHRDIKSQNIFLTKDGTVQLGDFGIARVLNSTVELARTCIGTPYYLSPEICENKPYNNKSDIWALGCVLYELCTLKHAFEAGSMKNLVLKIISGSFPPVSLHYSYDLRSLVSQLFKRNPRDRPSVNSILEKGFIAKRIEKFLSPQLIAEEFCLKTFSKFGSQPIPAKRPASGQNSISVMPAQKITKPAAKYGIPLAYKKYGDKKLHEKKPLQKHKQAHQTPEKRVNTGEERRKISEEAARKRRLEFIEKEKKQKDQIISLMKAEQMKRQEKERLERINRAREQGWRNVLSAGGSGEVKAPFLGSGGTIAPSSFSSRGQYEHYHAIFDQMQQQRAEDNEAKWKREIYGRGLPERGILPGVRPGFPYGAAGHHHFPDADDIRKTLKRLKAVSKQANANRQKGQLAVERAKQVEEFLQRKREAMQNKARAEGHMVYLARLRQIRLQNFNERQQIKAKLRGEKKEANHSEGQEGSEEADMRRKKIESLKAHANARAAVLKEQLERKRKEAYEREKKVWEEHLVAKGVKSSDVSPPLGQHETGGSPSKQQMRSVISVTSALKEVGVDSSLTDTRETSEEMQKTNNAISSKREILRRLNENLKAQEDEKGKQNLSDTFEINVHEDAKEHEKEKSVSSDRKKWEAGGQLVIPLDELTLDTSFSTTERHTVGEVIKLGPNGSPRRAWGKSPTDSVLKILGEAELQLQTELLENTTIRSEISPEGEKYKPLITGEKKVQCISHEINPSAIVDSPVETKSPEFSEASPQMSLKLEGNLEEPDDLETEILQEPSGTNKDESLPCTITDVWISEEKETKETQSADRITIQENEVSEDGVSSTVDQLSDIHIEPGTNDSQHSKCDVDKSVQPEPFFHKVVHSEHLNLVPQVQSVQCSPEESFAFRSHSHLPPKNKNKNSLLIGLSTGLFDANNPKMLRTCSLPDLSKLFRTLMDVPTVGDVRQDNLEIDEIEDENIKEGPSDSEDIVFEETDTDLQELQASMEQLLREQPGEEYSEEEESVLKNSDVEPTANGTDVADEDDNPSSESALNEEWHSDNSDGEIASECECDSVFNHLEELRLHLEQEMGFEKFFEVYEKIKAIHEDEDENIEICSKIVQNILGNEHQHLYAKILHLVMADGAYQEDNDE

[6] = target: Serine/threonine-protein kinase OSR1 (Homo sapiens) (UniProt O95747); assay: Inhibition of human OXSR1 at 18.6 nM by HotSpot assay relative to control
Chain of Serine/threonine-protein kinase OSR1 (Homo sapiens) (O95747 whole entry, looked up): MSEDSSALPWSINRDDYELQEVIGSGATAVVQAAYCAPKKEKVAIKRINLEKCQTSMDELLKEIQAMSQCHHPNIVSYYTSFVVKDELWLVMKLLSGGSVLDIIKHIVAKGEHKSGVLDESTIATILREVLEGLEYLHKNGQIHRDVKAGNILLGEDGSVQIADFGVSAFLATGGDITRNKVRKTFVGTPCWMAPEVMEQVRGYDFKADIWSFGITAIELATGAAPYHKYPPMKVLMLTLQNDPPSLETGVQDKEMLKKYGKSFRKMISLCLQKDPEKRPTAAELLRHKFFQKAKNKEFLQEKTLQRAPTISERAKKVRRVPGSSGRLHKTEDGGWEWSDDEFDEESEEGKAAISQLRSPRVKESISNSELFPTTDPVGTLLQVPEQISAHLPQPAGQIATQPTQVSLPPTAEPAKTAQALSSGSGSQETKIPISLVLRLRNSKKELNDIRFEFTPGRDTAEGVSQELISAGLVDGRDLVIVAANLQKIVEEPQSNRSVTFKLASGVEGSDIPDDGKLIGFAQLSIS

[7] = target: Tyrosine-protein kinase Lyn (Homo sapiens) (UniProt P07948); assay: Inhibition of human LYN at 1.82 nM by HotSpot assay relative to control
[8] = target: CDK1/Cyclin A (Homo sapiens) (UniProt P06493+P20248); assay: Inhibition of human CDK1/cyclin A at 1.82 nM by HotSpot assay relative to control; format: protein-complex assay
Chain of CDK1/Cyclin A (Homo sapiens) (P06493 whole entry, looked up): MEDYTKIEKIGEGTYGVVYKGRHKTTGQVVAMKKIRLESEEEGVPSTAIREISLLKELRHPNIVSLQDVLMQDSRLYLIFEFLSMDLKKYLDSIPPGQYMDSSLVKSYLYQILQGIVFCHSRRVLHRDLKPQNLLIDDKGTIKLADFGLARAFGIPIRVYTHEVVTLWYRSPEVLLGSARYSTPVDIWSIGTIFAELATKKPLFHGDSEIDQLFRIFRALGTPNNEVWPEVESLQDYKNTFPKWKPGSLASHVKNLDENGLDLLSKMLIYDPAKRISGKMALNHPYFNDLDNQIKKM
Chain of CDK1/Cyclin A (Homo sapiens) (P20248 whole entry, looked up): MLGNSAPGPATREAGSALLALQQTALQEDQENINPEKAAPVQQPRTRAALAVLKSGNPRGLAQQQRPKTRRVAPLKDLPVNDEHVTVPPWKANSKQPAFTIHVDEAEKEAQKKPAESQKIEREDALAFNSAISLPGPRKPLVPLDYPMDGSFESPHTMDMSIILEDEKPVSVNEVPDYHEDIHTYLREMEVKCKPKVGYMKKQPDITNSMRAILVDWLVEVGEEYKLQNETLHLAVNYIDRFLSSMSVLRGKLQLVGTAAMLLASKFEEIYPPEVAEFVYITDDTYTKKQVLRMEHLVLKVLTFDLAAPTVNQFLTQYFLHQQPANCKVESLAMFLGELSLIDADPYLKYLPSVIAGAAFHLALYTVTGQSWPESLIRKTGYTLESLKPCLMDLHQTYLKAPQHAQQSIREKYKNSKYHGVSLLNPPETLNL

[9] = target: Homeodomain-interacting protein kinase 3 (Homo sapiens) (UniProt Q9H422); assay: Inhibition of human HIPK3 at 1.82 nM by HotSpot assay relative to control
[10] = target: Serine/threonine-protein kinase PLK1 (Homo sapiens) (UniProt P53350); assay: Inhibition of human PLK1 at 1.82 nM by HotSpot assay relative to control
Chain of Serine/threonine-protein kinase PLK1 (Homo sapiens) (P53350 whole entry): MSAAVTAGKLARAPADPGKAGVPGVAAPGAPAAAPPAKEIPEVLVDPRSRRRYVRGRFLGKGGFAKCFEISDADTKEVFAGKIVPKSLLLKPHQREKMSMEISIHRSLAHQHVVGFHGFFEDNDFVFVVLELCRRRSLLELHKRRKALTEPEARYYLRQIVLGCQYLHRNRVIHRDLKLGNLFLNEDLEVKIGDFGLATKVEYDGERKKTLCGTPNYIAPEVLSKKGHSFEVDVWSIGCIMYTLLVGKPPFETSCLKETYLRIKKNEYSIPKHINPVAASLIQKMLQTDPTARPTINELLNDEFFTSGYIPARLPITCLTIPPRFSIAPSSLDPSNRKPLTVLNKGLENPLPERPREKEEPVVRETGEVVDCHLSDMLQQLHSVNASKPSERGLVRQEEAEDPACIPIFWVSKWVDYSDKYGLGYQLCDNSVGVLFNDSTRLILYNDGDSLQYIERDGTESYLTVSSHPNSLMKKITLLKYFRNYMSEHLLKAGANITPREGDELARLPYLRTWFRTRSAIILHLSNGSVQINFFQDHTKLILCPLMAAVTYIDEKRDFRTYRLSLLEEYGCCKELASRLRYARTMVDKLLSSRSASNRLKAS

[11] = target: Aurora kinase B (Homo sapiens) (UniProt Q96GD4); assay: Inhibition of human Aurora B at 1.82 nM by HotSpot assay relative to control
[12] = target: T2, Interleukin-1 receptor-associated kinase 4 (Homo sapiens) (UniProt Q9NWZ3); assay: Inhibition of human IRAK4 at 1.82 nM by HotSpot assay relative to control
T2 sequence (whole entry): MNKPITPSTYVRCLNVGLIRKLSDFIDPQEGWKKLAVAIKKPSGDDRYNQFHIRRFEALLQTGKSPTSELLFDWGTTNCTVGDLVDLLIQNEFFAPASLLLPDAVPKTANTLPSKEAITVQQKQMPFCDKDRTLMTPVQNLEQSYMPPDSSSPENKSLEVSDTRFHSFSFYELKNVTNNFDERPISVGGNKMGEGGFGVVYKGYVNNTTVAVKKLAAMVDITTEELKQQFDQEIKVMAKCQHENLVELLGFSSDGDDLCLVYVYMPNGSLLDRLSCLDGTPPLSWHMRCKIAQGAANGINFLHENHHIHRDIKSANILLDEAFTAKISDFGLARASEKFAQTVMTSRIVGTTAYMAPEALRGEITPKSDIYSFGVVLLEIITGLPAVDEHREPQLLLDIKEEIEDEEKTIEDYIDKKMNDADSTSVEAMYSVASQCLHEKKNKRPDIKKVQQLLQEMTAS

[13] = target: Tyrosine-protein kinase ABL1 (Homo sapiens) (UniProt P00519); assay: Inhibition of human ABL1 at 1.82 nM by HotSpot assay relative to control
Chain of Tyrosine-protein kinase ABL1 (Homo sapiens) (P00519 whole entry): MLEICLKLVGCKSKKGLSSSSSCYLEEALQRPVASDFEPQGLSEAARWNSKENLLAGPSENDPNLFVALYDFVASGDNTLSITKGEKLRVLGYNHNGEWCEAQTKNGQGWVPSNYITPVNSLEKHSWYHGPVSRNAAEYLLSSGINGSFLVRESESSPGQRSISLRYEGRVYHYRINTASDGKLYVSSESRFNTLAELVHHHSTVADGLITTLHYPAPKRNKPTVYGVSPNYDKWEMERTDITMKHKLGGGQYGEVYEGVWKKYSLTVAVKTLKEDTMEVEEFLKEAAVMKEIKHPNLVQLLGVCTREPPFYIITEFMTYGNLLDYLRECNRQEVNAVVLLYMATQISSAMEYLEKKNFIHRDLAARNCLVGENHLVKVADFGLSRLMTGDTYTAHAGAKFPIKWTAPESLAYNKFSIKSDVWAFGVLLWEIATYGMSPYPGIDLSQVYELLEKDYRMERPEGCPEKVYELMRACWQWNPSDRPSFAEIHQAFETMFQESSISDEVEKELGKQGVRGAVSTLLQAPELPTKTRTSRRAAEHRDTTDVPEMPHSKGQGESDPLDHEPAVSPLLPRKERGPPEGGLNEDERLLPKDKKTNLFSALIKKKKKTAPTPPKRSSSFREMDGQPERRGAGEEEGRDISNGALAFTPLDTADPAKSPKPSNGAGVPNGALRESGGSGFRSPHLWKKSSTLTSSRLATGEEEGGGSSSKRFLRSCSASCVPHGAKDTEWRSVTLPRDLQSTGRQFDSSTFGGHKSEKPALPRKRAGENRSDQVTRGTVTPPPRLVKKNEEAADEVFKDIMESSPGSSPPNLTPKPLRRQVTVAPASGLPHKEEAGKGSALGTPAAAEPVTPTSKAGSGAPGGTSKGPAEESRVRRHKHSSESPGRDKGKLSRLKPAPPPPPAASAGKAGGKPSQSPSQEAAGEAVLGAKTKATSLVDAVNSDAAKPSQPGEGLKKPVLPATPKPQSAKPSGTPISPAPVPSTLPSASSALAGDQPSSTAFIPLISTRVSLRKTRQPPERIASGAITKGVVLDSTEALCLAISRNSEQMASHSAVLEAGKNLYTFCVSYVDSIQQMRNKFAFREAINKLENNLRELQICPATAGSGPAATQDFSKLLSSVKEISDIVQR

[14] = target: BDNF/NT-3 growth factors receptor (Homo sapiens) (UniProt Q16620); assay: Inhibition of human TRKB at 1.82 nM by HotSpot assay relative to control
[15] = target: Protein kinase C alpha type (Homo sapiens) (UniProt P17252); assay: Inhibition of human PKCa at 1.82 nM by HotSpot assay relative to control

Chain of Mitogen-activated protein kinase 8 (Homo sapiens) (P45983 whole entry): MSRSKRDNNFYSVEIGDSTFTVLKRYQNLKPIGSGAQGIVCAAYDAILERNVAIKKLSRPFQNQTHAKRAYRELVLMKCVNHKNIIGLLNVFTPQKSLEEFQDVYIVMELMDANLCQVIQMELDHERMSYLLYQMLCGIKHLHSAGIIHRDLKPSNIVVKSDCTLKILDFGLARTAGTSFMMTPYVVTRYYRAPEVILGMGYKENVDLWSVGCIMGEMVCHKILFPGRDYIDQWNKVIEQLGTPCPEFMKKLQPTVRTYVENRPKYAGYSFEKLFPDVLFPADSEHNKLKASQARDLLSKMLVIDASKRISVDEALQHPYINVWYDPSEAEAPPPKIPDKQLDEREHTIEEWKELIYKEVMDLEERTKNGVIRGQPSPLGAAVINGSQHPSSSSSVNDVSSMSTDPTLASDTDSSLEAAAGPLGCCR
Chain of Death-associated protein kinase 2 (Homo sapiens) (Q9UIK4 whole entry, looked up): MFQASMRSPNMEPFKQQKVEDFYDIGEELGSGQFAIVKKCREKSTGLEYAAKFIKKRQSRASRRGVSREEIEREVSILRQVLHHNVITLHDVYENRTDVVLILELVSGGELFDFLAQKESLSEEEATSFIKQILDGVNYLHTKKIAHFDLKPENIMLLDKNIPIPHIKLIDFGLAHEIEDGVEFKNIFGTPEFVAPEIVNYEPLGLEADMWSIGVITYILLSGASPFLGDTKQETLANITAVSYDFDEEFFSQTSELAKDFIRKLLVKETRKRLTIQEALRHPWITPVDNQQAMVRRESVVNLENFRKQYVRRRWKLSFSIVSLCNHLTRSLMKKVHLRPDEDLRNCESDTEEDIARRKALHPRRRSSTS

inhibition [2] [%] | inhibition [3] [%] | inhibition [4] [%] | inhibition [5] [%] | inhibition [6] [%] | inhibition [7] [%] | inhibition [8] [%] | inhibition [9] [%] | inhibition [10] [%] | inhibition [11] [%] | inhibition [12] [%] | inhibition [13] [%] | inhibition [14] [%] | inhibition [15] [%] | Structure (SMILES) | inhibition [1] [%]
-1.1 | -0.08 | -5.78 | 5.45 | -6.49 | – | – | – | – | – | – | – | – | – | C[C@]1(O)C[C@@H](c2nc(-c3ccc4ccc(-c5ccccc5)nc4c3)c3c(N)nccn32)C1 | 0.74
– | – | – | – | – | 3.66 | -1.79 | -3.9 | -4.97 | -0.68 | -4.67 | 3.21 | 69.6 | -5.95 | C[C@@]1(C(=O)Nc2ccc(F)nc2)CCCN1c1nc(Nc2cc(C3CC3)n[nH]2)c2cccn2n1 | –
